# Data as given in a melting point compilation (Tetko et al.; mined from patent text by program, amines drawn as free bases though some values may be those of a salt).
row,Compound,melting point [°C]
1,Cc1c(C#N)sc2nc(-c3ccc([N+](=O)[O-])cc3)nc(N3CCNCC3)c12,250
2,C=CCOc1cc(OC(=S)N2CCCC2)ccc1Cl,87.3 to 91.1
3,COc1cc(C(F)(F)F)cc(Cl)c1Oc1ccc2ccc(O)cc2c1,130
4,COC(=O)C1(CCCCCCCCCCCCC2(C(=O)NS(C)(=O)=O)CC2)CC1,53.5 to 54.5
5,O=c1c2ccc(/C=C/c3ccc(O)cc3)cc2cnn1-c1ccccn1,272
6,CCn1nc(C(=O)OCc2ccccc2)cc(Nc2cnccc2C)c1=O,137 to 138
7,Cc1ccc(S(=O)(=O)Cl)c(C)c1NC(=O)CCl,148 to 149
8,COCC1OC(n2cnc3c(N)nc(F)nc32)C(O)C1O (stereo not drawn),231 to 233
9,COc1ccnc(C(=O)N[C@H]2COC[C@H](OCCC(C)C)[C@@H](OCCC(C)C)[C@H](C)OC2=O)c1O,61 to 70
10,O=c1[nH]c(=O)n2c(c1-c1ccccc1)SC=CC2,286 to 290
11,CC(C)(C)OC(=O)N1CCC2(CC1)C(=O)N(CC(=O)O)CN2c1ccccc1,200 to 201
12,CCCn1cnc2c1c1n[nH]c(=O)n1c(=O)n2CCC,217 to 218
13,CCn1c(C)nc2c(C(=O)OC)c(C(=O)OC)ccc21,127 to 128
14,O=C1CCc2cc(C(O)c3ccccc3)ccc2N1 (stereo not drawn),175
15,COc1ccc(N(C)c2nc(N)nc3[nH]c4ccccc4c23)cc1,234
16,Cc1cc(Cl)c(C(=O)O)c(Cl)c1,139 to 145
17,Cc1cccc(NC(=O)NCC(=O)N2[C@@H](C(=O)OC(C)(C)C)CC[C@H]2c2ccccc2)c1 (racemic),156
18,OCCOCCNc1nc(-n2ccnc2)nc2ccc(CO)cc12,183
19,Cc1ccc(Cl)cc1N1CCCN(C)C1=S,143 to 145
20,CC1CC(n2c(NC3CC3)nc3cc(Cl)c(Cl)cc32)C(O)C1O (stereo not drawn),231 to 233
21,O=[N+]([O-])c1cc(-c2nc3ccccc3s2)ccc1O,214 to 215
22,N#Cc1ccc(C=NO)c(F)c1,179 to 182
23,CNC(=S)C1(c2cccnc2)CCCCS1 (stereo not drawn),131
24,Cc1cccc(-c2nc(N)sc2-c2cccc(-c3ccc(S(C)(=O)=O)cc3)c2)n1,107 to 109
25,O=C(c1ccccc1)c1cc2ccnc(N(Cc3ccccc3)Cc3ccccc3)c2[nH]1,122 to 124

row,Compound,melting point [°C]
1,Cn1c(C(F)(F)F)cc(=O)n(-c2ccc3snc(C(C)(C)C(=O)NS(C)(=O)=O)c3c2)c1=O,264 to 265
2,O=C(CCl)NC(C(=O)O)N(C(=O)CCl)c1cscn1 (stereo not drawn),184 to 186
3,Nc1ccc(OS(=O)(=O)c2ccc(NCCO)cc2)cc1[N+](=O)[O-],180
4,O=C1C=CC(=O)N1CO,96.5 to 97
5,CC(=O)Nc1ccc(OCC2CO2)c(C(=O)Nc2cccc3[nH]ccc23)c1 (stereo not drawn),230
6,Cn1c(CCN2CCN(c3ccccc3)CC2)nc2c3ccccc3ccc21,153 to 155
7,CC(=O)OC1CSC(Oc2cccnc2-c2nnn[nH]2)C(OC(C)=O)C1OC(C)=O (stereo not drawn),119 to 127
8,Cc1ccccc1C(=O)Nn1cc(-c2ccccc2)nc1S,159 to 160
9,CCc1cc2c([nH]c1=O)c(C)cc1cc(CBr)oc12,237 to 240
10,O=C1N(Cc2ccc(Cl)cc2)c2ccccc2C1(O)c1cc(OCc2ccccc2)ccc1O (stereo not drawn),172 to 175
11,COc1ccc(S(=O)(=O)N(C)CP(=O)(O)O)cc1N,218 to 220
12,CN(C)CCCNC(=O)c1cccc([N+](=O)[O-])c1Cl,122 to 125
13,COCCOc1ccc(CCCOC(=O)NS(=O)(=O)NCCC(C)C)c(Oc2ncc(C(F)(F)F)cc2Cl)c1,123 to 124
14,N#CSc1ccc(N)c(N)c1,108 to 110
15,CC(C)(C)OC(=O)NCCC(=O)NCc1cccc2c1C(=O)N(C1CCC(=O)NC1=O)C2=O (stereo not drawn),96 to 98
16,c1ccc2c(c1)Cn1ccnc1CN2,164 to 170
17,O=C(O)CCCCCCC1C(=O)CCC1=O,131 to 141
18,CC(C)N(CC1CCCCN1CCNC(=O)N1c2ccccc2C(=O)Nc2cccnc21)C(C)C (stereo not drawn),181 to 182
19,CC(c1ccc(S(C)(=O)=O)cn1)C(O)(Cn1cncn1)c1ccc(F)cc1F (stereo not drawn),176 to 177
20,CCN(CC)CCSC1=C(C#N)C(c2cccnc2)(c2ccc(OC)c(OC)c2)C(=O)N1 (stereo not drawn),133 to 135
21,CCOC(=O)c1nc[nH]c1C(=O)OCC,175 to 177
22,CC(C)(C)C(=O)C(Br)Oc1ccc(Cl)cc1Cl (stereo not drawn),70
23,CC(C)OC(=O)Cn1c(-c2ccc(Cl)cc2)nc2cccnc21,118 to 120
24,CN(C)CC(O)Cn1c2ccccc2c2c3c(c4c5ccccc5n(C)c4c21)C(=O)N(C)C3=O (stereo not drawn),198 to 203
25,COc1ccc(C2Sc3c(ccc4ccccc34)N(CCN(C)C)C(=O)C2OC(=O)c2ccccc2O)cc1 (stereo not drawn),150 to 151

row,Compound,melting point [°C]
1,N#Cc1c(N2CCCCC2)cc(-c2ccco2)c2c1Cc1ccccc1-2,160 to 162
2,COc1cccc(Sc2c(O)c3ccc(Cl)cc3[nH]c2=O)c1,199 to 200
3,O=[N+]([O-])c1ccccc1NN=Cc1ncc(C(F)(F)F)cc1Cl,127 to 135
4,C[Si](C)(C)CCOC(=O)c1cccc2nnsc12,37 to 39
5,CCCCc1oc2ccccc2c1C(=O)c1ccc2c(Br)c(OCC(=O)O)ccc2c1,163 to 165
6,CCOC(=O)c1c(O)c2cnc(-c3ccccc3)nc2n(Cc2ccccc2)c1=O,230 to 231
7,O=C1Cc2cc(OCCN3CCC(Cc4ccc(F)cc4)CC3)ccc2N1,149 to 150
8,BrCC1(c2ccc3c(c2)Cc2ccccc2-3)OCCO1,90
9,CC(C)N1C(=O)CC(C(=O)O)C1c1ccccc1 (stereo not drawn),126 to 134
10,Cc1cccc(COc2ccc3c(c2)[C@@H](O)[C@H](Cc2cccnc2)CO3)n1 (relative stereo),66 to 68
11,Nc1ccc2ccc(N3CCCC3)nc2n1,251
12,CN1CCN(c2nc(-c3ccc(Cl)cc3)c(CCC(=O)O)o2)CC1,157 to 160
13,C[C@]1(COc2ccc(N3CCN(Cc4ccc(C(F)(F)F)cc4)CC3)cc2)Cn2cc([N+](=O)[O-])nc2O1,206 to 207
14,Cc1ccc(N2C(=O)C(O)=C(C(=O)c3ccc(C4CCCCC4)cc3)C2c2ccc(OC(F)(F)F)cc2)nn1 (stereo not drawn),283 to 286
15,CC(C)c1ccc2c(c1)c(Sc1ccccc1C(C)C)c(CC(C)(C)C(=O)O)n2Cc1ccc(Cl)cc1,142 to 143
16,Cc1ccc(Cl)cc1N1CN(C)CNC1=S,171 to 173
17,CSc1ccc(C2=C(c3ccc(F)cc3C)CCC2)cc1,67 to 68
18,CN(C)CCCNS(=O)(=O)c1ccc(C(C)(C)c2cc(C(C)(C)CC(C)(C)C)cc(-n3nc4ccccc4n3)c2O)cc1,96 to 101
19,COC1(c2cc(OCc3ccc4c(ccc(=O)n4C)c3)cc(C(F)(F)F)c2)CCOCC1,103
20,CCCc1c(OCCCOc2ccc(-c3cscn3)c(OC)c2CCC)ccc2c1OC(CCC(=O)O)CC2 (stereo not drawn),110 to 113
21,Cn1ncnc1COc1nn2c(-c3ccco3)nncc2c1-c1ccccc1F,204 to 206
22,CC(C)c1cccc(CCCO)c1NC(=O)CC1c2ccccc2Oc2ccccc21,218 to 219
23,COc1ccc2c(c1)C(=O)N(c1ccc3cnn(C)c3c1)C2,175 to 177
24,CC(C)N(CCCC(=NNC(N)=S)c1ccccc1)C(=O)c1ccccc1,107 to 109
25,CCN1CC(N(CCN2CCCC2)S(=O)(=O)c2ccc(Nc3nccc(Nc4ccc(F)c(C)c4)n3)cc2)C1,195

row,Compound,melting point [°C]
1,CC(C)COc1ccc(-n2cc(C(=O)O)cn2)cc1C#N,192 to 194
2,O=C(OCc1ccccc1)OCC1OC(n2cc(F)c(=O)[nH]c2=O)C(O)C1O (stereo not drawn),66 to 68
3,COc1cc(NC(=O)Nc2ccc(Oc3ccncc3)cc2)cc(C(F)(F)F)c1,162 to 164
4,COc1cc(OC)c(CC(=O)c2ccc(C(C)C)c(OS(N)(=O)=O)c2C(C)C)c(OC)c1,159 to 163
5,Fc1ccc(-c2nc(SCCCCSc3nc(-c4ccc(F)cc4)c(-c4ccc(F)cc4)[nH]3)[nH]c2-c2ccc(F)cc2)cc1,172 to 174
6,COc1ccc(OC)c(Cc2c(C)c3c(N)nc(N)nc3[nH]c2=O)c1,325 to 326
7,CCOC(=O)CN1C(=O)SC(Cc2ccc(N3CCC(NCC(O)c4ccc(O)c(NS(C)(=O)=O)c4)CC3)cc2)C1=O (stereo not drawn),153 to 155
8,CCC(=C(c1ccccc1)c1ccc(C2CC2C(=O)N(CC)CC)cc1)c1ccccc1 (stereo not drawn),42 to 44
9,OCc1cncn1-c1ccccc1,81 to 84
10,COC(=O)C1=C(SCc2ccc(OC)cc2)C2=C(CC=CC=C2)CC1,79 to 81
11,O=C(Nc1cccc(S(=O)(=O)NCC(F)(F)F)c1)c1cnn2c(C(F)F)cc(-c3ccc(C(F)(F)F)cc3)nc12,257
12,COc1cc2c(cc1F)C1(CO2)C(=O)N(Cc2ccccn2)c2ccccc21 (stereo not drawn),142 to 144
13,CC(CCCO)C1CCC2C3C(O)CC4CC(O)CCC4(C)C3CCC12C (stereo not drawn),116 to 118
14,CCN(CC)CC1CCCCN1CC(=O)N1c2ccccc2NC(=O)c2c1ccn2C (stereo not drawn),141 to 144
15,C=CCc1cc(CC(N)=O)ccc1OCC(O)CNCCC(=O)OCC (stereo not drawn),98
16,COC(=O)Cc1ccc(OCC(C)NCC(O)c2ccc(Cl)cc2)cc1 (stereo not drawn),78 to 79
17,O=S(=O)(Cl)C=Cc1ccc(Cl)c(Cl)c1,91 to 96
18,NC(=O)C1CCN(C(c2ccccc2)c2ccccc2)CC1,150
19,CC(=O)OCC1=C(C(=O)OC(C)(C)C)N2C(=O)C(NC(=O)Cn3ccnc3S(C)(=O)=O)C2SC1 (stereo not drawn),164
20,CCC(O)C1CCNCC1 (stereo not drawn),50
21,O=C(NNC(=O)C(F)(F)F)c1ccccc1,153 to 154
22,Cn1c(=O)c(-c2ccc(Cl)cc2Cl)cc2c3cc(-c4ccn[nH]4)ccc3[nH]c21,246 to 250
23,CC[C@H](C)C(=O)O[C@H]1C[C@@H](C)C=C2C=C[C@H](C)[C@H](CCC(=O)C[C@@H](O)CC(=O)O)[C@H]21,102 to 103
